Ends that are not written are not given here.
Tested on: CT-26/iRFP/KITENIN-V5 liver metastases
Test: Intrasplenic hepatic metastasis model, CT-26/iRFP/KITENIN-V5 cells in syngeneic mice
Type: in vivo, mouse
Protocol: For hepatic metastasis analysis, 5‐ to 6‐week‐old Balb/c mice were obtained from OrientBio, Inc. (Seongnam, Korea) and housed in metal cages with free access to water and food. A syngeneic mouse model of colorectal liver metastasis was established by an infusion of tumour cells into the portal system via intrasplenic injection.[27] In brief, CT‐26/KITENIN‐iRFP‐expressing cells (2 × 10^5 cells/mouse) were injected into the spleen. Splenectomy was performed 15 min after an injection of CT‐26 cells. Mice were randomly assigned to two groups: scrambled peptide and KDIP (1, 5 mg/kg). Each peptide was given via intravenous injection six times for 2 weeks after 7 days of inoculation of tumour cells. Metastatic tumour nodules in the liver with a diameter of >1.0 mm were counted using a microscope, and a metastasis score was allocated based on nodule size as follows: 0 (no gross metastasis), 1 (tumour size >1 mm), 2 (tumour size 1 >5 mm) and 3 (tumour size >10 mm). The metastasis score was obtained by multiplying the number and the score of nodules. Fluorescence images of liver nodules expressing iRFP were taken using a Fluorescence‐labelled Organism Bioimaging Instrument (Cellgentek, Korea) and total fluorescence emitted from liver nodules was measured and compared between groups.
Effect of KAI1 C‐terminal interacting tetraspanin (KITENIN) dimerization‐interfering peptide (KDIP) on tumour growth and metastasis in in vivo mouse model of colorectal cancer (CRC). (A) Treatment with KDIP decreases cell invasion of KITENIN‐overexpressing CT‐26 cells. Cell invasion assay was performed in CT‐26 cells transfected with KITENIN and treated with scr‐peptide or KDIP (1 μM) (upper panel). […] For the evaluation of metastasis, total fluorescence emitted from liver nodules expressing iRFP was measured and counted (left panel) or metastatic tumour growth was counted as nodules that migrated to the surface of the liver, and a metastatic score was obtained by multiplying it with size (middle panel). Metastatic score or total fluorescence is represented as mean ± SEM. […]

[1] = KDIP 5 mg/kg versus scrambled peptide, immunoblot densitometry, n = 6

## YARVRRRGPRRWRLVSDEAV [KDIP]
KDIP 5 mg/kg intravenously for 2 weeks, compared with scramble peptide group
  fluorescence of the hepatic nodule (liver metastasis, in words): significantly reduced
[1]
  KITENIN level in metastatic liver nodules (in words): significantly decreased
  protein level of Myo10 in metastatic liver nodules (in words): significantly decreased

From article PMC9296036, “A peptide interfering with the dimerization of oncogenic KITENIN protein and its stability suppresses colorectal tumour progression” (Clinical and Translational Medicine, 2022)
